For one assay, the target named is recombinant human Nav1.7 (Homo sapiens (Human), UniProt Q15858). Kind of assay: FRET-based membrane potential assay, recombinant human sodium channel Nav1.7. As to conditions: read-out: FRET-Membrane Potential Nav1.7 IC50. Format: cell-based. In short, it runs like this: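 Channel activation used veratridine at its EC80, set by a dilution curve each experiment, together with Leiurus scorpion venom, added 3 min after compound. Membrane-potential ratio signals from FLIPR Tetra in HEPES-buffered HBSS were fitted to a four-parameter Hill equation for percent inhibition and IC50.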

The subject of another assay is osteoarthritic rats. Kind of assay: Osteoarthritic (OA) pain induced by sodium monoiodoacetate (MIA), hind limb grip force. It is filed as in vivo, rat. To be noted: rat, 20 days following MIA injection, hind limb grip force; for inhibition in vivo at 30 mg/kg / inhibition in vivo at 10 mg/kg: Rattus norvegicus, 480 h, read-out: OA MPE. As for the experimental part:
Osteoarthritic (OA) Pain Induced by Sodium Monoiodoacetate (MIA)
Pain behavior was assessed by measurement of hind limb grip force (GF) in adult osteoarthritic rats. Male Sprague Dawley rats, obtained from Charles River Laboratories, (Wilmington, Mass.), weighing 150-175 g, were injected in the unilateral knee join with a single intra-articular injection of sodium monoiodoacetate (MIA, 3 mg/rat). All rats were tested at 20 days following MIA injection. A behavioral measure of activity-induced pain was carried out. Measurements of the peak hind limb grip force were conducted by recording the maximum compressive force (CFmax), in grams of force, exerted on a hind limb strain gauge setup, in a commercially available grip force measurement system (Columbus Instruments, Columbus, Ohio).
During testing, each rat was gently restrained by grasping it around its rib cage and then allowed to grasp the wire mesh frame attached to the strain gauge. The experimenter then moved the animal in a rostral-to-caudal direction until the grip was broken. Each rat was sequentially tested twice at an approximately 2-3 minute interval to obtain a raw mean grip force (CFmax). This raw mean grip force data was in turn converted to a maximum hindlimb cumulative compressive force (CFmax), as the grams of force/kg of body weight, for each animal.
For evaluating the compound effects, the hind limb grip force was conducted 20 days following the intra-articular injection of MIA. A group of age-matched naïve (not injected with MIA) animals was added as a comparator to the drug-dosed groups. The vehicle control response for each group of MIA-treated animals was defined as the 0% response (0% effect), whereas the naïve control group was defined as the normal response and as 100% effect. The % effect for each dose group was expressed as % return of response to normalcy, compared to the naïve group. A percent maximal possible effect (% MPE) of testing compound was calculated according to the formula: (Treatment CFmax−Vehicle CFmax)/Vehicle CFmax]×100). Higher % effect numbers indicate increased relief from the pain in the model, with 100% indicating a return to the level of response seen in normal (non-osteoarthritic) animals. All experiments evaluating drug effects in this model were conducted in a randomized blinded fashion.
The animals were housed in Association for Assessment and Accreditation of Laboratory Animal Care (AAALAC) approved facilities at AbbVie Inc. in a temperature-regulated environment under a controlled 12-hour light-dark cycle, with lights on at 6:00 a.m. Food and water were available ad libitum at all times except during testing. All testing was done following procedures outlined in protocols approved by AbbVie Inc.'s Institutional Animal Care and Use Committee.

For a further assay, the target named is recombinant human Nav1.8 (Homo sapiens (Human), UniProt Q9Y5Y9). Description: FRET-based membrane potential assay, recombinant human sodium channel Nav1.8. Format: cell-based.
Setting [1] is: HEK293 cells stably expressing recombinant human Nav1.7, veratridine + scorpion venom depolarization.
Where [2] appears, read: HEK293 cells stably expressing recombinant human Nav1.8, veratridine + scorpion venom depolarization.

Like-named read-outs stand apart in the source and are kept apart here.

recombinant human Nav1.7, sequence (Q15858 whole entry): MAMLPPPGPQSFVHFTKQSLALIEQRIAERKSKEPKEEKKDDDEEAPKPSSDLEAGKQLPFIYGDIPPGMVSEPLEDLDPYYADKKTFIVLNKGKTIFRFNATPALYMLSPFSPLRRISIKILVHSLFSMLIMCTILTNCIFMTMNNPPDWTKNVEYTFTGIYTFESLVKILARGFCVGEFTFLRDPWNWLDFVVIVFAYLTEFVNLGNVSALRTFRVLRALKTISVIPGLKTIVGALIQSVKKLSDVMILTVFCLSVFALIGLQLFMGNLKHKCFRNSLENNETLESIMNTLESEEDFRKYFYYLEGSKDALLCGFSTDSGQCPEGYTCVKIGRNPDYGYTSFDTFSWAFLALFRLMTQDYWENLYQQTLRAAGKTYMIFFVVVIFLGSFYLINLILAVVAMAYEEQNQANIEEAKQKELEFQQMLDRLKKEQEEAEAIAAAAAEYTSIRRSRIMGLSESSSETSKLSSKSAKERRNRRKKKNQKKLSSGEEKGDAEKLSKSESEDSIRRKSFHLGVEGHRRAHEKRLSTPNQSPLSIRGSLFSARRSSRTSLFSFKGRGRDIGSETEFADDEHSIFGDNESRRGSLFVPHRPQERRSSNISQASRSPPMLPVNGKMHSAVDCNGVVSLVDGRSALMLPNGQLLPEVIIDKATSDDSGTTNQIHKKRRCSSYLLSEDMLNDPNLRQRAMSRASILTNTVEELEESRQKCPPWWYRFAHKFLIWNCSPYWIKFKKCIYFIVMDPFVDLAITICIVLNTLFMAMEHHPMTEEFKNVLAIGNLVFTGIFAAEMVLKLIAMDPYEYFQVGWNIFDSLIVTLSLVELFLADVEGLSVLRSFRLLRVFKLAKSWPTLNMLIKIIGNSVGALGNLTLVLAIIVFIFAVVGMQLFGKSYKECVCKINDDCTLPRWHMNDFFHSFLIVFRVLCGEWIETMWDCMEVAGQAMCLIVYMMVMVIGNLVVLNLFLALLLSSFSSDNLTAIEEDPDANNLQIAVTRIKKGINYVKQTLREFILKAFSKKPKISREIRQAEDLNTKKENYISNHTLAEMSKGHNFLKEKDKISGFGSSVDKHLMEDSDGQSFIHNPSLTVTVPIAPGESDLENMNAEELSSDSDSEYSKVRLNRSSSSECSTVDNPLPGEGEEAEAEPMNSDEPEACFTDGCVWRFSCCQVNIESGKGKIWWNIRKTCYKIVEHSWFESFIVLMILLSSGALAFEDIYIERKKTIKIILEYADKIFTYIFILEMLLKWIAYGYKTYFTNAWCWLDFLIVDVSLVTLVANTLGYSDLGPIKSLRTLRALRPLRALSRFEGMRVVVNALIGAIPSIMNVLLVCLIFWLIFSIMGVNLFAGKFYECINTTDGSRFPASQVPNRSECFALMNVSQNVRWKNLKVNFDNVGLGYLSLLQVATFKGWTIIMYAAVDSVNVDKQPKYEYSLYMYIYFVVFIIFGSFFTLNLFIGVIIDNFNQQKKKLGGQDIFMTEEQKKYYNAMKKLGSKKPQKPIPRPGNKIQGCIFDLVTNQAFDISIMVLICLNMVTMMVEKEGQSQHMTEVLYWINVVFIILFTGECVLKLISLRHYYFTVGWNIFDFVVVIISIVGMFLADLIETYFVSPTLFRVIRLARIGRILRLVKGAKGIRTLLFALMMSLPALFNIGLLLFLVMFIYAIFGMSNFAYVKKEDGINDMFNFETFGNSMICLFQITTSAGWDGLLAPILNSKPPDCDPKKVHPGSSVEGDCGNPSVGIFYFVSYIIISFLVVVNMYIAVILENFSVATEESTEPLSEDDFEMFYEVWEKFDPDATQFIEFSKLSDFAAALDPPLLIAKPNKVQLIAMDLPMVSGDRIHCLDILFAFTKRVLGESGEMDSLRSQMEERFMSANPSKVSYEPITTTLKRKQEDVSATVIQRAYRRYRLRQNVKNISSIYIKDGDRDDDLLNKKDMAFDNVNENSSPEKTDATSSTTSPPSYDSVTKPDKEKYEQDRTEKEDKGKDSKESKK
recombinant human Nav1.8, sequence (Q9Y5Y9 whole entry): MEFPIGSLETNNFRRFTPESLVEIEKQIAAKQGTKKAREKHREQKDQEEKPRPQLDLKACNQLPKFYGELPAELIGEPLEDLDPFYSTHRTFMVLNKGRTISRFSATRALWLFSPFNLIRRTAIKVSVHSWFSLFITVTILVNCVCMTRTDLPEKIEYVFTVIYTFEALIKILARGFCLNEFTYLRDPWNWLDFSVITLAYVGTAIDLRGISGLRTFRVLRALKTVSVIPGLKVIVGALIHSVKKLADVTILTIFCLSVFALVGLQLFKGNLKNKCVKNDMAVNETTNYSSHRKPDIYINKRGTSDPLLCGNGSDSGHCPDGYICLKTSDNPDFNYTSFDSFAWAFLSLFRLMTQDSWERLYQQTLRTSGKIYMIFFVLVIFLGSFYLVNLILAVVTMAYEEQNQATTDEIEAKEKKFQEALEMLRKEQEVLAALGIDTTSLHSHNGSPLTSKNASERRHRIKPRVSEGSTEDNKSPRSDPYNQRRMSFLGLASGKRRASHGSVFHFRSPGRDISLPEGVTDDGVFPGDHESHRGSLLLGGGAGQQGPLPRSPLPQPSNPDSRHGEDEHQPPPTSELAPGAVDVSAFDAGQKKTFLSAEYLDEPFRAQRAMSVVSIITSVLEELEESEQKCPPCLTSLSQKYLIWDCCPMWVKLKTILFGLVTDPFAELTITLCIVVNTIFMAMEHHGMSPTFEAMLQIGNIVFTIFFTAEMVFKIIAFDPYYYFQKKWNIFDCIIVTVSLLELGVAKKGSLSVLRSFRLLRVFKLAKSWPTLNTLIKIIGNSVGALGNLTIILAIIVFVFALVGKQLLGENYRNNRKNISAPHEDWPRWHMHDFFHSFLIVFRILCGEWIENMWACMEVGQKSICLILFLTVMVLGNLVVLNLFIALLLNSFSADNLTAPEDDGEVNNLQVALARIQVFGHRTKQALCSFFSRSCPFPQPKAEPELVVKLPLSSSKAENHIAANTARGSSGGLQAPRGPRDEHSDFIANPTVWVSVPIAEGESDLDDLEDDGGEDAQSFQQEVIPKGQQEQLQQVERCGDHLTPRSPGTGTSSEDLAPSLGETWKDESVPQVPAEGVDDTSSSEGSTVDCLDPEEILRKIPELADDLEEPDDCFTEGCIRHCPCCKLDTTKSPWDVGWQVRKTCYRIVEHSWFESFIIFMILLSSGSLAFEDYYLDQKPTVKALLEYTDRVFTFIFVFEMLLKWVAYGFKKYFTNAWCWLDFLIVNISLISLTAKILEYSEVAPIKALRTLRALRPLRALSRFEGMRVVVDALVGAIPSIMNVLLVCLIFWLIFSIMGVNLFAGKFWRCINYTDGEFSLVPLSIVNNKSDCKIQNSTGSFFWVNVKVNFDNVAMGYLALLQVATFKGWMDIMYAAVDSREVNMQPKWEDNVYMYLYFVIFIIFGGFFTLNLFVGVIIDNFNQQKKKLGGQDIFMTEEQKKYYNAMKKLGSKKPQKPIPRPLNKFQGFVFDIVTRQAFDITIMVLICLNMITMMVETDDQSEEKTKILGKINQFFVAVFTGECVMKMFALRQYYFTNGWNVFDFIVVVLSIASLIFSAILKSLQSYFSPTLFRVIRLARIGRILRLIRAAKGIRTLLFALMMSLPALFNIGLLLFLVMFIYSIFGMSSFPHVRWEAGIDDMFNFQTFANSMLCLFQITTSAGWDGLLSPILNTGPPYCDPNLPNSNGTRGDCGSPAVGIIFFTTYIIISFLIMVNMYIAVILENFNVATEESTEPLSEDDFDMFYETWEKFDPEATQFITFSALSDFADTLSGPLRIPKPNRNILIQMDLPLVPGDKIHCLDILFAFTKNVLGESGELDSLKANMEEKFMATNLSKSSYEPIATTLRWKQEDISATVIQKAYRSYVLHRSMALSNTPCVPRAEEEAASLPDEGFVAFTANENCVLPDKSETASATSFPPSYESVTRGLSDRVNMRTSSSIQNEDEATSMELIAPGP

In general, IC50 refers to the concentration that gives 50% inhibition. Consider `CN1CC(NC(=O)c2ccc3cc(Oc4ccc(C(F)(F)F)cn4)ccc3n2)CC1=O` (single isomer, unassigned) [Example 73, N-[(3R*)-1-methyl-5-oxopyrrolidin-3-yl]-6-{[5-(trifluoromethyl)pyridin-2-yl]oxy}quinoline-2-carboxamide], for which the IC50 was 1440 nM on recombinant human Nav1.7 (setting [1]) and 1700 nM on recombinant human Nav1.8 (setting [2]). Further, the inhibition in vivo at 30 mg/kg in the assay on osteoarthritic rats (OA dose 30 mg/kg) was determined as 66%.

With `CN1CC(NC(=O)c2ccc3cc(Oc4ccc(C(F)(F)F)cn4)ccc3n2)CC1=O` (single isomer, unassigned) [Example 74, N-[(3S*)-1-methyl-5-oxopyrrolidin-3-yl]-6-{[5-(trifluoromethyl)pyridin-2-yl]oxy}quinoline-2-carboxamide], the half-inhibitory concentration (IC50) on recombinant human Nav1.7 (setting [1]) amounted to 863 nM; on recombinant human Nav1.8 (setting [2]), 1880 nM. Moreover, in the assay with osteoarthritic rats (OA dose 30 mg/kg), the “OA MPE” value is listed as 69%.

On to `O=C(c1ccc2cc(Oc3ccc(C(F)(F)F)cn3)ccc2n1)N1CC(O)C1` [Example 18, (3-hydroxyazetidin-1-yl)(6-{[5-(trifluoromethyl)pyridin-2-yl]oxy}quinolin-2-yl)methanone], for which the IC50 on recombinant human Nav1.7 (setting [1]) is 2200 nM; at recombinant human Nav1.8, 5340 nM. Besides, the inhibition in vivo at 10 mg/kg in the assay with osteoarthritic rats (OA dose 10 mg/kg) turned out to be 23%.

Regarding `O=C(c1ccc2cc(Oc3ccc(C(F)(F)F)nc3)ccc2n1)N1CCNCC1` [Example 19, piperazin-1-yl(6-{[6-(trifluoromethyl)pyridin-3-yl]oxy}quinolin-2-yl)methanone], the concentration for half-maximal inhibition (IC50) on recombinant human Nav1.7 (setting [1]) amounted to 1260 nM; at recombinant human Nav1.8 (setting [2]), 3960 nM. In addition, in the assay on osteoarthritic rats (OA dose 30 mg/kg), the inhibition in vivo at 30 mg/kg was determined as 64%.

`O=C(c1ccc2cc(Oc3ccc(C(F)(F)F)cn3)ccc2n1)N1CCNC(C(F)(F)F)C1` (stereo not drawn) [Example 20, [3-(trifluoromethyl)piperazin-1-yl](6-{[5-(trifluoromethyl)pyridin-2-yl]oxy}quinolin-2-yl)methanone]: the concentration for half-maximal inhibition (IC50) on recombinant human Nav1.7 (setting [1]) was 10500 nM; on recombinant human Nav1.8 (setting [2]), 3230 nM. Also, the inhibition in vivo at 10 mg/kg in the assay with osteoarthritic rats (OA dose 10 mg/kg) was 24%.

On to `O=C(NC1CCC(F)(F)CC1)c1ccc2cc(Oc3ccc(C(F)(F)F)cn3)ccc2n1` [Example 23, N-(4,4-difluorocyclohexyl)-6-{[5-(trifluoromethyl)pyridin-2-yl]oxy}quinoline-2-carboxamide], for which the IC50 is 1450 nM on recombinant human Nav1.7 (setting [1]) and more than 20000 nM on recombinant human Nav1.8 (setting [2]). For the same compound, in the assay on osteoarthritic rats (OA dose 30 mg/kg), the inhibition in vivo at 30 mg/kg turned out to be 83%.

For the compound `O=C(c1ccc2cc(Oc3ccc(C(F)(F)F)cn3)ccc2n1)N1CCNCC1C(F)F` (stereo not drawn) [Example 25, [2-(difluoromethyl)piperazin-1-yl](6-{[5-(trifluoromethyl)pyridin-2-yl]oxy}quinolin-2-yl)methanone], the IC50 on recombinant human Nav1.7 came out at 1750 nM; on recombinant human Nav1.8 (setting [2]) it was 3830 nM. Besides, in the assay on osteoarthritic rats (OA dose 30 mg/kg), the inhibition in vivo at 30 mg/kg is 102%.

Consider `O=C(c1ccc2cc(Oc3ccc(C(F)(F)F)cn3)ccc2n1)N1CCN(CCO)CC1` [Example 28, [4-(2-hydroxyethyl)piperazin-1-yl](6-{[5-(trifluoromethyl)pyridin-2-yl]oxy}quinolin-2-yl)methanone], for which the IC50 on recombinant human Nav1.7 (setting [1]) is 3060 nM; on recombinant human Nav1.8 (setting [2]) it was 4220 nM. Besides, the inhibition in vivo at 10 mg/kg in the assay on osteoarthritic rats (OA dose 10 mg/kg) is 16%.

For `N[C@@H]1[C@H]2CN(C(=O)c3ccc4cc(Oc5ccc(C(F)(F)F)cn5)ccc4n3)C[C@@H]12` [Example 36, meso-[(1R,5S,6s)-6-amino-3-azabicyclo[3.1.0]hex-3-yl](6-{[5-(trifluoromethyl)pyridin-2-yl]oxy}quinolin-2-yl)methanone], the figures for the IC50 at recombinant human Nav1.7 (setting [1]) and on recombinant human Nav1.8 (setting [2]) were 727 nM and 1420 nM, respectively. Also, the “OA MPE” value in the assay with osteoarthritic rats (OA dose 10 mg/kg) is listed as 55%.

For `CCN1CC(NC(=O)c2ccc3cc(Oc4ccc(C(F)(F)F)cn4)ccc3n2)CC1=O` (stereo not drawn) [Example 45, N-(1-ethyl-5-oxopyrrolidin-3-yl)-6-{[5-(trifluoromethyl)pyridin-2-yl]oxy}quinoline-2-carboxamide], the IC50 came out at 325 nM on recombinant human Nav1.7 (setting [1]) and 468 nM at recombinant human Nav1.8 (setting [2]). Also, in the assay with osteoarthritic rats (OA dose 30 mg/kg), the inhibition in vivo at 30 mg/kg was 17%.

`CCN1CC(NC(=O)c2ccc3cc(Oc4ccc(C(F)F)cn4)ccc3n2)CC1=O` (stereo not drawn) [Example 46, 6-{[5-(difluoromethyl)pyridin-2-yl]oxy}-N-(1-ethyl-5-oxopyrrolidin-3-yl)quinoline-2-carboxamide]: the 50% inhibitory concentration (IC50) turned out to be 344 nM on recombinant human Nav1.7 (setting [1]) and 501 nM at recombinant human Nav1.8 (setting [2]). In addition, the inhibition in vivo at 30 mg/kg in the assay on osteoarthritic rats (OA dose 30 mg/kg) is 98%.

In the case of `O=C(c1ccc2cc(Oc3ccc(C(F)(F)F)cn3)ccc2n1)N1CCN(C2CCC2)CC1` [Example 47, (4-cyclobutylpiperazin-1-yl)(6-{[5-(trifluoromethyl)pyridin-2-yl]oxy}quinolin-2-yl)methanone], the 50% inhibitory concentration (IC50) on recombinant human Nav1.7 worked out at 1420 nM; on recombinant human Nav1.8 (setting [2]), 334 nM. The inhibition in vivo at 10 mg/kg in the assay on osteoarthritic rats (OA dose 10 mg/kg) is 30%.

For the compound `CC1(NC(=O)c2ccc3cc(Oc4ccc(C(F)(F)F)cn4)ccc3n2)COC1` [Example 48, N-(3-methyloxetan-3-yl)-6-{[5-(trifluoromethyl)pyridin-2-yl]oxy}quinoline-2-carboxamide], the IC50 on recombinant human Nav1.7 (setting [1]) is 4430 nM; at recombinant human Nav1.8 (setting [2]), 774 nM. Also, the inhibition in vivo at 10 mg/kg in the assay with osteoarthritic rats (OA dose 10 mg/kg) was determined as 41%.

As to `N[C@@H]1[C@H]2CN(C(=O)c3ccc4cc(Oc5ccc(C(F)F)cn5)ccc4n3)C[C@@H]12` [Example 49, meso-[(1R,5S,6s)-6-amino-3-azabicyclo[3.1.0]hex-3-yl](6-{[5-(difluoromethyl)pyridin-2-yl]oxy}quinolin-2-yl)methanone], the 50% inhibitory concentration (IC50) at recombinant human Nav1.7 (setting [1]) amounted to 2270 nM; on recombinant human Nav1.8 (setting [2]), 702 nM. Besides, in the assay on osteoarthritic rats (OA dose 30 mg/kg), the “OA MPE” value is reported as 58%.

On to `O=C(c1ccc2cc(Oc3ccc(C(F)(F)F)cn3)ccc2n1)N1CCN2CC(F)(F)C[C@H]2C1` [Example 53, [(8aS)-7,7-difluorohexahydropyrrolo[1,2-a]pyrazin-2(1H)-yl](6-{[5-(trifluoromethyl)pyridin-2-yl]oxy}quinolin-2-yl)methanone], for which the IC50 at recombinant human Nav1.7 (setting [1]) turned out to be 3260 nM; at recombinant human Nav1.8 (setting [2]) it was 11000 nM. Moreover, the inhibition in vivo at 30 mg/kg in the assay with osteoarthritic rats (OA dose 30 mg/kg) was found to be 70%.

For the compound `CC[C@@H]1CN(C(=O)c2ccc3cc(Oc4ccc(C(F)F)cn4)ccc3n2)CCN1` [Example 55, (6-{[5-(difluoromethyl)pyridin-2-yl]oxy}quinolin-2-yl)[(3R)-3-ethylpiperazin-1-yl]methanone], the half-inhibitory concentration (IC50) came out at 594 nM on recombinant human Nav1.7 (setting [1]) and 2080 nM at recombinant human Nav1.8. Also, the inhibition in vivo at 10 mg/kg in the assay on osteoarthritic rats (OA dose 10 mg/kg) was found to be 42%.

With `COCCNC(=O)c1ccc2cc(Oc3ccc(C(F)(F)F)nc3)ccc2n1` [Example 56, N-(2-methoxyethyl)-6-{[6-(trifluoromethyl)pyridin-3-yl]oxy}quinoline-2-carboxamide], the IC50 worked out at 3010 nM on recombinant human Nav1.7 (setting [1]) and 1490 nM at recombinant human Nav1.8 (setting [2]). Moreover, the inhibition in vivo at 10 mg/kg with osteoarthritic rats (OA dose 10 mg/kg) was determined as 43%.

As for `O=C(c1ccc2cc(Oc3ccc(OC(F)F)cn3)ccc2n1)N1CCNCC1` [Example 57, (6-{[5-(difluoromethoxy)pyridin-2-yl]oxy}quinolin-2-yl)(piperazin-1-yl)methanone], the concentration for half-maximal inhibition (IC50) on recombinant human Nav1.7 (setting [1]) is 3190 nM; on recombinant human Nav1.8 (setting [2]), 870 nM. Also, in the assay with osteoarthritic rats (OA dose 30 mg/kg), the inhibition in vivo at 30 mg/kg was determined as 53%.

As for `O=C1C[C@@H](NC(=O)c2ccc3cc(Oc4ccc(C(F)(F)F)cn4)ccc3n2)CN1` [Example 58, N-[(3R)-5-oxopyrrolidin-3-yl]-6-{[5-(trifluoromethyl)pyridin-2-yl]oxy}quinoline-2-carboxamide], the values for the 50% inhibitory concentration (IC50) at recombinant human Nav1.7 (setting [1]) and at recombinant human Nav1.8 (setting [2]) were 1030 nM and 2840 nM, respectively. Also, the inhibition in vivo at 30 mg/kg in the assay with osteoarthritic rats (OA dose 30 mg/kg) worked out at 64%.

As for `CCN1CCC(N(CC)C(=O)c2ccc3cc(Oc4ccc(C(F)(F)F)cn4)ccc3n2)CC1=O` (stereo not drawn) [Example 61, N-ethyl-N-(1-ethyl-2-oxopiperidin-4-yl)-6-{[5-(trifluoromethyl)pyridin-2-yl]oxy}quinoline-2-carboxamide], the IC50 was found to be 556 nM on recombinant human Nav1.7 (setting [1]) and 1140 nM on recombinant human Nav1.8 (setting [2]). For the same compound, in the assay with osteoarthritic rats (OA dose 10 mg/kg), the inhibition in vivo at 10 mg/kg worked out at 61%.
